Values of other authors as cited in patent US20180327482A1, “METHODS AND COMPOSITIONS FOR THE TREATMENT OF HCMV” (priority 2013, published 2018).

Tested on: cells latently infected with HCMV
Conditions: Weekes et al., Science 340:199-202 (2013)

## CC[C@]1(O)C[C@H]2CN(CCc3c([nH]c4ccccc34)[C@@](C(=O)OC)(c3cc4c(cc3OC)N(C=O)[C@H]3[C@@](O)(C(=O)OC)[C@H](OC(C)=O)[C@]5(CC)C=CCN6CC[C@]43[C@@H]65)C2)C1 [Vincristine]
  Elimination of cells latently infected with HCMV: can be used therapeutically to eliminate cells latently infected with HCMV
